Patent US20100086931A1, “METHOD FOR ASSAYING ACTION OF ANTITUMOR AGENT USING DECREASE IN GENE EXPRESSION LEVEL AS INDEX” (Eisai R&D Management Co., Ltd., priority 2007, published 2010)

Tested on: human colon carcinoma cell strain WiDr
Experiment: Microarray analysis (Human Genome U133 plus 2.0 array) of mRNA expression in WiDr cells treated with compound A
Type: cell-based
Conditions: 14 nM, 6 h, ratio to control
Protocol: Microarray analysis (Human Genome U133 plus 2.0 array: Affymetrix) was carried out using RNA purified from human colon carcinoma cell strain WiDr treated with 2.8 nM and 14 nM of (8E,12E,14E)-7-((4-Cycloheptylpiperazin-1-yl)carbonyl)oxy-3,6,16,21-tetrahydroxy-6,10,12,16,20-pentamethyl-18,19-epoxytricosa-8,12,14-trien-11-olide (hereinafter also referred to as “compound A”) for six hours.
WiDr cells were first suspended in RPMI1640 medium (containing 10% FBS, penicillin, and streptomycin) and seeded in a 10 cm dish (2×10^6 cells/dish). After an overnight culture in an incubator with 5% carbon dioxide gas at 37° C., the medium was changed with medium containing 2.8 nM and 14 nM of compound A or containing vehicle alone. After cultured additional six hours, TRI reagent (SIGMA) was added to cells, and the cells were harvested. RNA was purified in accordance with the protocol of TRI reagent, followed by further purification with RNeasy (QIAGEN). Absorbance at 260 nm was measured to quantify an amount of RNA.
Subsequently, single stranded cDNA synthesis, double stranded cDNA synthesis, biotin-labeled cRNA synthesis, and cRNA fragmentation in order were carried out from 5-10 μg (WiDr 10 μg, PBMC 5 μg) of total RNA from the control cells and the treated cells, by using One-Cycle Target Labeling and Control Reagents (Affymetrix). cRNA probe was used for hybridization with Human Genome U133 Plus 2.0 Array (Affymetrix). The array was then washed and stained, and luminescence intensity was measured by a scanner.
The RMA method was applied to 33 of .cel files obtained in the microarray experiment and log signal intensity at a gene level normalized with log signal intensity at a probe level was obtained. By subtracting the mean between control 1 and control 3 from the mean between log signal intensity 1 and log signal intensity 3 for each case, the log signal intensity was converted into a log signal ratio to the control. A t-test was conducted between each log signal intensity and control, and candidate genes were narrowed down in the basis of a p-value, a log signal ratio, and a signal value. Specifically, genes showing that the P value was 5% or less; the expression level in the untreated (control) is 100 or more by signal value; and the expression level when treated with both 2.8 nM and 14 nM of compound A is, compared to the control, 25% or less, were picked out. The software used is R2.2.1 (http://www.r-project.org/), affy package 1.8.1 (http://www.bioconductor.org).
Genes showing that, by the treatment with compound A, the P value was 5% or less; the expression level in the untreated (control) is 100 or more by signal value; and the expression level when treated with both 2.8 nM and 14 nM of compound A is, compared to the control, 25% or less, and results thereof were shown in Table 1. Probe ID used in Table 1 represents Human Genome U133 Plus 2.0 Array Probeset ID. In Table 1, for each gene evaluated, gene name (Gene Name), abbreviated name (Gene Symbol), accession number (Accession), alias name (Synonym), Probe set number in Human Genome U133 Plus 2.0 Array (Human Genome U133 Plus 2.0 Array Probeset ID), the expression level upon the six-hour treatment with 2.8 nM of E7107 (2.8 nM (6 h)), and the expression level upon the six-hour treatment with 14 nM of E7107 (14 nM (6 h)) were respectively shown.

CCC(O)C(C)C1OC1CC(C)(O)/C=C/C=C(\C)C1OC(=O)CC(O)CCC(C)(O)C(OC(=O)N2CCN(C3CCCCCC3)CC2)/C=C/C1C (stereo not drawn) [E7107, (8E,12E,14E)-7-((4-Cycloheptylpiperazin-1-yl)carbonyl)oxy-3,6,16,21-tetrahydroxy-6,10,12,16,20-pentamethyl-18,19-epoxytricosa-8,12,14-trien-11-olide]
0.03: IREB2 mRNA expression level (225892_at)
0.05: BPTF mRNA expression level (232909_s_at) | C5orf28 mRNA expression level (219029_at) | CCNE2 mRNA expression level (205034_at) | EHBP1 mRNA expression level (212653_s_at) | FBXL5 mRNA expression level (209004_s_at) | ZMIZ1 mRNA expression level (212124_at)
0.04: C7orf23 mRNA expression level (204215_at) | RFC4 mRNA expression level (204023_at) | ZC3HAV1L mRNA expression level (228280_at)
0.19: C1orf63 mRNA expression level (209006_s_at) | C1orf82 mRNA expression level (222893_s_at) | C15orf40 mRNA expression level (1552310_at) | KIAA0323 mRNA expression level (212355_at) | KIN mRNA expression level (205664_at) | METTL3 mRNA expression level (209265_s_at) | mRNA expression level, probeset 235436_at (gene name not given)
0.22: ERCC3 mRNA expression level (202176_at) | FAM86C mRNA expression level (65585_at) | MKRN1 mRNA expression level (201285_at) | PIK3C3 mRNA expression level (204297_at) | RPS6KC1 mRNA expression level (218909_at) | SLC25A19 mRNA expression level (223222_at) | TMEM177 mRNA expression level (218897_at) | Transcribed locus mRNA expression level (230177_at)
0.20: ADPRHL2 mRNA expression level (223097_at) | ELL3 mRNA expression level (219518_s_at) | INTS7 mRNA expression level (222250_s_at) | NPC1 mRNA expression level (202679_at)
0.16: KCNE3 mRNA expression level (227647_at) | LOC124512 mRNA expression level (225808_at) | WDR26 mRNA expression level (218107_at)
0.25: FLJ20628 mRNA expression level (221229_s_at) | SLC37A1 mRNA expression level (218928_s_at) | ZCCHC6 mRNA expression level (220933_s_at)
0.24: MYOHD1 mRNA expression level (225947_at) | SMUG1 mRNA expression level (218685_s_at) | SYTL2 mRNA expression level (232914_s_at)
0.23: C7orf49 mRNA expression level (220949_s_at) | TRIP4 mRNA expression level (203732_at)
0.21: C17orf80 mRNA expression level (223351_at) | FANCL mRNA expression level (218397_at) | HDAC4 mRNA expression level (204225_at) | NIN mRNA expression level (225921_at) | NUPL2 mRNA expression level (204003_s_at) | TRIM31 mRNA expression level (210159_s_at)
0.12: ARMC8 mRNA expression level (203486_s_at) | CLIP1 mRNA expression level (201975_at) | Full-length cDNA clone CS0DL007YI24 of B cells (Ramos cell line) mRNA expression level (226648_at) | KIF2C mRNA expression level (211519_s_at) | NUPL1 mRNA expression level (223984_s_at) | ORC5L mRNA expression level (204957_at) | RBBP6 mRNA expression level (212783_at) | REPS1 mRNA expression level (224366_s_at) | Transcribed locus, strongly similar to NP_002194.1 integrin alpha 2 precursor mRNA expression level (227314_at) | Transcribed locus, strongly similar to NP_689873.1 mRNA expression level (228638_at) | ZNF518 mRNA expression level (204291_at)
0.13: CARD10 mRNA expression level (210026_s_at) | CDC7 mRNA expression level (204510_at) | NR2C1 mRNA expression level (204791_at) | RBM17 mRNA expression level (224780_at) | Transcribed locus mRNA expression level (230098_at)
0.15: ATP6V0A2 mRNA expression level (205704_s_at) | C6orf136 mRNA expression level (227455_at) | C7orf36 mRNA expression level (223433_at) | DNAJC16 mRNA expression level (212908_at) | KIAA0776 mRNA expression level (212633_at) | NOC3L mRNA expression level (218889_at) | PHACTR4 mRNA expression level (226823_at) | ZKSCAN1 mRNA expression level (214670_at)
0.18: FGF19 mRNA expression level (223761_at) | GRHL1 mRNA expression level (222830_at) | METTL4 mRNA expression level (219698_s_at) | PCGF1 mRNA expression level (210023_s_at) | SLC17A5 mRNA expression level (223441_at) | mRNA expression level, probeset 228106_at (gene name not given)
0.11: FCHO2 mRNA expression level (228220_at) | KLHL12 mRNA expression level (225068_at) | LIPG mRNA expression level (219181_at) | MASTL mRNA expression level (228468_at) | RBMS1 mRNA expression level (209868_s_at) | TSEN2 mRNA expression level (219581_at) | TUBGCP3 mRNA expression level (203690_at)
0.09: C20orf112 mRNA expression level (225224_at) | CLDND1 mRNA expression level (208925_at) | JAGN1 mRNA expression level (223104_at) | JUB mRNA expression level (225806_at) | KIAA0859 mRNA expression level (212405_s_at) | KIF21A mRNA expression level (226003_at) | POLD3 mRNA expression level (212836_at) | TAF4 mRNA expression level (213090_s_at) | TTC4 mRNA expression level (46167_at)
0.07: DAPK1 mRNA expression level (203139_at) | EVI1 mRNA expression level (226420_at) | LOC51315 mRNA expression level (218303_x_at) | PPM1B mRNA expression level (209296_at) | RIF1 mRNA expression level (226821_at) | TNS3 mRNA expression level (217853_at)
0.17: ANGEL2 mRNA expression level (221825_at) | ATP2A2 mRNA expression level (212361_s_at) | C12orf32 mRNA expression level (225837_at) | CCDC14 mRNA expression level (225017_at) | CDNA FLJ34214 fis, clone FCBBF3021807 mRNA expression level (227087_at) | NCOA5 mRNA expression level (225145_at) | PMS1 mRNA expression level (213677_s_at) | Transcribed locus mRNA expression level (235609_at) | WBP4 mRNA expression level (203598_s_at)
0.14: C1orf79 mRNA expression level (223774_at) | CASC5 mRNA expression level (228323_at) | IXL mRNA expression level (225708_at) | MND1 mRNA expression level (223700_at) | PPWD1 mRNA expression level (213483_at) | SMEK2 mRNA expression level (226230_at) | STAMBPL1 mRNA expression level (227606_s_at) | STXBP3 mRNA expression level (203310_at)
0.06: E2F7 mRNA expression level (228033_at) | FKSG44 mRNA expression level (227964_at) | MCM10 mRNA expression level (220651_s_at) | PLEKHA5 mRNA expression level (220952_s_at) | SFXN1 mRNA expression level (230069_at) | UNC50 mRNA expression level (203583_at)
0.10: ATP2B1 mRNA expression level (212930_at) | FRY mRNA expression level (204072_s_at) | MLL2 mRNA expression level (227527_at) | PHF20L1 mRNA expression level (226942_at) | POLR3E mRNA expression level (222490_at) | RAD54B mRNA expression level (219494_at) | Transcribed locus, moderately similar to XP_518244.1 mRNA expression level (235046_at)
0.08: CDC6 mRNA expression level (203967_at) | PAXIP1 mRNA expression level (212825_at) | SHPRH mRNA expression level (226366_at) | WDR67 mRNA expression level (214061_at)
